Key:
[1] = test system: human colorectal carcinoma cell line HCT116; assay: In vivo inhibition of cancer cell proliferation in the mouse by intraperitoneal administration (HCT116 transplant); design: species or system Balb/c nude mice; settings: 30 mg/kg intraperitoneal; for Weight changes over the administration time: nude mice
Description: First, female Balb/c nude mice (6 weeks old) were administered with the compound prepared in Example 2 via intraperitoneal injection. […] One week later, any change in the tumor size was observed by comparing the volume of the first formed tumor and the volume measured one week after. On the last day, the tumor was weighed. […] All the values of each measurement title were examined by t-test to investigate the statistical significance of the values obtained from the non-treated group, the group treated with the compound of Example 2, and the positive control group.

[2] = test system: B16F10 melanoma cells; assay: Inhibition of metastasis in vivo in the test mouse (luciferase imaging); design: species or system C57BL/6 mice; settings: for Weight changes over the administration time: C57BL/6 mice
Description: To evaluate the inhibition effect of the compound on metastasis, C57BL/6 mice were transplanted with B16F10 melanoma cells (2×10^6 cells/ml) expressing luciferase via intravenous injection (0.2 ml, 4×10^5 cells/mouse). One hour later, 50 μl of luciferin was administered to each mouse at the concentration of 15 mg/ml via intraperitoneal injection. Then, the compound prepared in Example 2 of the invention was intraperitoneally administered at the concentration of 50 mg/kg 13 times. […] The image of the mouse was photographed every day for 14 days with a live animal imaging system (PHOTON IMAGER, Biospace). On the last day of the experiment, the mouse was sacrificed by using CO2 gas. The lung was extracted from the mouse, and lung metastasis of the skin cancer cells was confirmed. To investigate toxicity, weight and other general symptoms were observed during the experimental period. At this time, all the values of each measurement title were examined by t-test for the statistical significance of the values obtained from the non-treated group, the group treated with the compound of Example 2, and the positive control group. The results are shown in Table 3, Table 4, FIG. 9, and FIG. 10.

Question: Which results are given for `CCN(CC)CCNC(=O)c1c(C)[nH]c(/C=C2\C(=O)Nc3ccc(F)cc32)c1C` [sunitinib]?
Answer: Inhibition rate of tumor growth (tumor volume) ([1]; 0 day): (0%); Tumor volume over the administration time (Vt − Vo) ([1]; 0 day): 0.0 ± 0.0; Weight changes over the administration time ([1]; 0 day): 100.0 ± 0.0%; Inhibition rate of tumor growth (tumor volume) ([1]; 2 days): (31.7%); Weight changes over the administration time ([1]; 2 days): 100.5 ± 1.4%; Weight changes over the administration time ([1]; 4 days): 100.7 ± 2.0%; Tumor weight at final day ([1]; 7 days): 1064.9 ± 130.9 mg; Weight changes over the administration time ([1]; 7 days): 100.8 ± 3.3%; Weight changes over the administration time ([2]; 0 day): 100.0 ± 0.0%; Image signals over the administration time ([2]; 0 day, live animal imaging): 857.2 ± 679.3 photons/s/sr; Weight changes over the administration time ([2]; 2 days): 100.9 ± 2.2%; Weight changes over the administration time ([2]; 4 days): 102.9 ± 2.0%; Image signals over the administration time ([2]; 4 days, live animal imaging, Example 2 50 mg/kg, sunitinib 30 mg/kg): 222.0 ± 146.1 photons/s/sr; Weight changes over the administration time ([2]; 7 days): 103.0 ± 2.8%; Weight changes over the administration time ([2]; 9 days): 106.0 ± 3.1%; Inhibition rate of tumor metastasis (image signals) ([2]; 9 days, live animal imaging): (19.9%); Image signals over the administration time ([2]; 9 days, live animal imaging, Example 2 50 mg/kg, sunitinib 30 mg/kg): 47.5 ± 10.7 photons/s/sr; Weight changes over the administration time ([2]; 11 days): 105.4 ± 2.9%; Weight changes over the administration time ([2]; 14 days): 107.7 ± 3.3%; Image signal at final day ([2]; 14 days, extracted lung imaging, Example 2 50 mg/kg, sunitinib 30 mg/kg): 21738.7 ± 14939.0; Image signals over the administration time ([2]; 14 days, live animal imaging, Example 2 50 mg/kg, sunitinib 30 mg/kg): 13084.0 ± 8931.2 photons/s/sr

— patent US9447063B2, “Disubstituted adamantyl derivative or pharmaceutically acceptable salt thereof, production method for same, and pharmaceutical composition for suppressing cancer metastasis comprising same as active ingredient” (KOREA RESEARCH INSTITUTE OF BIOSCIENCE AND BIOTECHNOLOGY, priority 2012, dated 2016)
